Like-named read-outs stand apart in the source and are kept apart here.
How the values were obtained:
[1] = in vitro; type: cell-based, human; settings: human, 300 μmol/L, about 24 hours, PMA-differentiated HL-60 cells, LDH, no-treatment 0%, cell lysis buffer 100%, read-out: cytotoxicity (%) Evaluation compound results
Outline: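 HL-60 cells differentiated ~72 h with 10 nM PMA, then exposed ~24 h to compound at 300 μmol/L final in RPMI with 2% FBS. LDH release in supernatant gave cytotoxicity % scaled between untreated (0%) and lysis-buffer (100%) groups; triplicate.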

[2] = Study for confirmation of conversion to brexpiprazole in a buffer (stability of the evaluation compounds); type: physicochemical; settings: in buffer, average of duplicate; for Concentration of brexpiprazole formed: 60-minute reaction sample; for Concentration of evaluation compound decreased: decrease in 60-minute vs 0-minute reaction sample
Outline: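 Compounds (final 1 μmol/L, from 100 μmol/L working solutions) incubated in buffer at 37° C. for 0 or 60 min, in duplicate, after 3 min pre-incubation of the reaction solution. Reactions stopped with acetonitrile/isopropanol (4:1) containing internal standards; compound and formed brexpiprazole quantified against 0.01–1 μmol/L calibration samples.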

| Concentration of brexpiprazole formed [2] [nM] | Concentration of evaluation compound decreased [2] [nM] | SMILES | cytotoxicity at 24 h, 300 µM ([1]; differentiated hl-60 cells) [%] | cytotoxicity at 24 h, 300 µM [1] [%] |
| --- | --- | --- | --- | --- |
| 0 | 20 | COCCOP(=O)([O-])OC[N+]1(CCCCOc2ccc3ccc(=O)[nH]c3c2)CCN(c2cccc3sccc23)CC1 [EX 12, (4-(benzo[b]thiophen-4-yl)-1-(4-((2-oxo-1,2-dihydroquinolin-7-yl)oxy)butyl)piperazin-1-ium-1-yl)methyl (2-methoxyethyl) phosphate] | -7 | – |
| 0 | 70 | CCOCCOCCOC(=O)OCOP(=O)([O-])OC[N+]1(CCCCOc2ccc3ccc(=O)[nH]c3c2)CCN(c2cccc3sccc23)CC1 [EX 134, (4-(benzo[b]thiophen-4-yl)-1-(4-((2-oxo-1,2-dihydroquinolin-7-yl)oxy)butyl)piperazin-1-ium-1-yl)methyl (3-oxo-2,4,7,10-tetraoxadodecyl) phosphate] | -7 | – |
| 0 | 70 | O=c1ccc2ccc(OCCCC[N+]3(COP(=O)([O-])OCCCCCCCO)CCN(c4cccc5sccc45)CC3)cc2[nH]1 [EX 45, (4-(benzo[b]thiophen-4-yl)-1-(4-((2-oxo-1,2-dihydroquinolin-7-yl)oxy)butyl)piperazin-1-ium-1-yl)methyl (7-hydroxyheptyl) phosphate] | 3 | – |
| 0 | -30 | CC(C)(CO)COP(=O)([O-])OC[N+]1(CCCCOc2ccc3ccc(=O)[nH]c3c2)CCN(c2cccc3sccc23)CC1 [EX 48, (4-(benzo[b]thiophen-4-yl)-1-(4-((2-oxo-1,2-dihydroquinolin-7-yl)oxy)butyl)piperazin-1-ium-1-yl)methyl (3-hydroxy-2,2-dimethylpropyl) phosphate] | -9 | – |
| 0 | -30 | Cc1ncccc1C(=O)OCOP(=O)([O-])OC[N+]1(CCCCOc2ccc3ccc(=O)[nH]c3c2)CCN(c2cccc3sccc23)CC1 [EX 81, (4-(benzo[b]thiophen-4-yl)-1-(4-(2-oxo-1,2-dihydroquinolin-7-yl)oxy)butyl)piperazin-1-ium-1-yl)methyl (((2-methylnicotinoyl)oxy)methyl) phosphate] | 8 | – |
| 0 | 110 | CC(C)(C)C(=O)OP(=O)([O-])OC[N+]1(CCCCOc2ccc3ccc(=O)[nH]c3c2)CCN(c2cccc3sccc23)CC1 [EX 150, (4-(benzothiophen-4-yl)-1-(4-((2-oxo-1H-quinolin-7-yl)oxy)butyl)piperazin-1-ium-1-yl)methyl 2,2-dimethylpropanoyl phosphate] | 10 | – |
| 0 | 90 | CCOCCCOP(=O)([O-])OC[N+]1(CCCCOc2ccc3ccc(=O)[nH]c3c2)CCN(c2cccc3sccc23)CC1 [EX 97, (4-(benzo[b]thiophen-4-yl)-1-(4-((2-oxo-1.2-dihydroquinolin-7-yl)oxy)butyl)piperazin-1-ium-1-yl)methyl (3-ethoxypropyl) phosphate] | -2 | – |
| 0 | 40 | O=c1ccc2ccc(OCCCC[N+]3(COP(=O)([O-])OCCCCCCCCCO)CCN(c4cccc5sccc45)CC3)cc2[nH]1 [EX 46, (4-(benzo[b]thiophen-4-yl)-1-(4-((2-oxo-1,2-dihydroquinolin-7-yl)oxy)butyl)piperazin-1-ium-1-yl)methyl (9-hydroxynonyl) phosphate] | 14 | – |
| 0 | 70 | CC(C)(O)CCOP(=O)([O-])OC[N+]1(CCCCOc2ccc3ccc(=O)[nH]c3c2)CCN(c2cccc3sccc23)CC1 [EX 41, (4-(benzo[b]thiophen-4-yl)-1-(4-((2-oxo-1,2-dihydroquinolin-7-yl)oxy)butyl)piperazin-1-ium-1-yl)methyl (3-hydroxy-3-methylbutyl) phosphate] | -3 | – |
| 0 | 170 | CSCCCOP(=O)([O-])OC[N+]1(CCCCOc2ccc3ccc(=O)[nH]c3c2)CCN(c2cccc3sccc23)CC1 [EX 66, (4-(benzo[b]thiophen-4-yl)-1-(4-((2-oxo-1,2-dihydroquinolin-7-yl)oxy)butyl)piperazin-1-ium-1-yl)methyl (3-(methylthio)propyl) phosphate] | -2 | – |
| 0 | 50 | CC1(C)O[C@H]2[C@@H](O1)[C@@H](COP(=O)([O-])OC[N+]1(CCCCOc3ccc4ccc(=O)[nH]c4c3)CCN(c3cccc4sccc34)CC1)O[C@@H]1OC(C)(C)O[C@@H]12 [EX 100, (4-(benzo[b]thiophen-4-yl)-1-(4-((2-oxo-1,2-dihydroquinolin-7-yl)oxy)butyl)piperazin-1-ium-1-yl)methyl (((3aR,5R,5aS,8aS,8bR)-2,2,7,7-tetramethyltetrahydro-5H-bis([1,3]dioxolo)[4,5-b:4′,5′-d]pyran-5-yl)methyl)phosphate] | -3 | – |
| 0 | 90 | O=C(OCCCCCCOP(=O)([O-])OC[N+]1(CCCCOc2ccc3ccc(=O)[nH]c3c2)CCN(c2cccc3sccc23)CC1)c1ccccc1 [EX 57, (4-(benzo[b]thiophen-4-yl)-1-(4-((2-oxo-1,2-dihydroquinolin-7-yl)oxy)butyl)piperazin-1-ium-1-yl)methyl (6-(benzoyloxy)hexyl) phosphate] | 4 | – |
| 0 | 10 | COCCCCOP(=O)([O-])OC[N+]1(CCCCOc2ccc3ccc(=O)[nH]c3c2)CCN(c2cccc3sccc23)CC1 [EX 50, (4-(benzo[b]thiophen-4-yl)-1-(4-((2-oxo-1,2-dihydroquinolin-7-yl)oxy)butyl)piperazin-1-ium-1-yl)methyl (4-methoxybutyl) phosphate] | -8 | – |
| 0 | 50 | CCOC(=O)CCOC(=O)OCOP(=O)([O-])OC[N+]1(CCCCOc2ccc3ccc(=O)[nH]c3c2)CCN(c2cccc3sccc23)CC1 [EX 143, (4-(benzo[b]thiophen-4-yl)-1-(4-((2-oxo-1,2-dihydroquinolin-7-yl)oxy)butyl)piperazin-1-ium-1-yl)methyl ((((3-ethoxy-3-oxopropoxy)carbonyl)oxy)methyl) phosphate] | -5 | – |

| SMILES | Concentration of brexpiprazole formed [2] [nM] | Concentration of evaluation compound decreased [2] [nM] | cytotoxicity at 24 h, 300 µM ([1]; differentiated hl-60 cells) [%] | cytotoxicity at 24 h, 300 µM [1] [%] |
| --- | --- | --- | --- | --- |
| COCCN(CCOC)P(=O)([O-])OC[N+]1(CCCCOc2ccc3ccc(=O)[nH]c3c2)CCN(c2cccc3sccc23)CC1 [EX 153, (4-(benzo[b]thiophen-4-yl)-1-(4-((2-oxo-1.2-dihydroquinolin-7-yl)oxy)butyl)piperazin-1-ium-1-yl)methyl bis(2-methoxyethyl)phosphoramidate] | 0 | -10 | – | -7 |
| COCCn1nc(C(=O)OCOP(=O)([O-])OC[N+]2(CCCCOc3ccc4ccc(=O)[nH]c4c3)CCN(c3cccc4sccc34)CC2)c2ccccc21 [EX 82, (4-(benzo[b]thiophen-4-yl)-1-(4-((2-oxo-1.2-dihydroquinolin-7-yl)oxy)butyl)piperazin-1-ium-1-yl)methyl (((1-(2-methoxyethyl)-1H-indazole-3-carbonyl)oxy)methyl) phosphate] | 0 | 20 | -2 | – |
| CC(C)COC(=O)[C@@H](C)OP(=O)([O-])OC[N+]1(CCCCOc2ccc3ccc(=O)[nH]c3c2)CCN(c2cccc3sccc23)CC1 [EX 107, (R)-(4-(benzo[b]thiophen-4-yl)-1-(4-((2-oxo-1,2-dihydroquinolin-7-yl)oxy)butyl)piperazin-1-ium-1-yl)methyl (1-isobutoxy-1-oxopropan-2-yl) phosphate] | 0 | 70 | -6 | – |
| CC(C)COCCOP(=O)([O-])OC[N+]1(CCCCOc2ccc3ccc(=O)[nH]c3c2)CCN(c2cccc3sccc23)CC1 [EX 51, (4-(benzo[b]thiophen-4-yl)-1-(4-((2-oxo-1,2-dihydroquinolin-7-yl)oxy)butyl)piperazin-1-ium-1-yl)methyl (2-isobutoxyethyl) phosphate] | 0 | 50 | -9 | – |
| CC(C)(C)OC(=O)NC(C)(C)C(=O)OCOP(=O)([O-])OC[N+]1(CCCCOc2ccc3ccc(=O)[nH]c3c2)CCN(c2cccc3sccc23)CC1 [EX 128, (4-(benzo[b]thiophen-4-yl)-1-(4-((2-oxo-1,2-dihydroquinolin-7-yl)oxy)butyl)piperazin-1-ium-1-yl)methyl (((2-(tert-butoxycarbonyl)amino)-2-methylpropanoyl)oxy)methyl) phosphate] | 0 | -30 | 2 | – |

From patent publication US20260285888A1, “HETEROCYCLIC COMPOUND AND USE THEREOF” (OTSUKA PHARMACEUTICAL CO., LTD., priority 2023, published 2026)
